Where two headings read alike, the source gives them in different places.
Tests used:
[1] = tested on: SK-BR-3; test: Inhibition of cells growth by colorimetric (SRB) assay, SK-BR-3; details: for GI50 / CC50: Homo sapiens, SK-BR-3, 48 h; for GI50: read-out: SK-BR-3 GI50, SRB assay, 48 hours exposure; for SK-BR-3 TGI: SRB assay, 48 hours exposure
Outline: (§1)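 Human tumour cells in RPMI 1640 with 10% FBS were seeded at 5×10^3 cells/well, allowed to attach for 18 h, then exposed to samples at 10 to 10^−8 μg/ml for 48 h. Growth was measured by SRB staining after TCA fixation, with absorbance read at 490 nm in triplicate wells.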

[2] = tested on: LoVo-Dox; test: Inhibition of cells growth by colorimetric (SRB) assay, LoVo-Dox; details: for GI50 / CC50: Homo sapiens, 48 h; for GI50: read-out: LOVO-DOX GI50, SRB assay, 48 hours exposure; for LOVO-DOX TGI: SRB assay, 48 hours exposure
Outline: as §1

[3] = tested on: HT-29; test: Inhibition of cells growth by colorimetric (SRB) assay, HT-29; details: for GI50 / CC50: Homo sapiens, HT-29, 48 h; for GI50: read-out: HT-29 GI50, SRB assay, 48 hours exposure; for HT-29 TGI: SRB assay, 48 hours exposure
Outline: as §1

[4] = tested on: HeLa-APL; test: Inhibition of cells growth by colorimetric (SRB) assay, HeLa-APL; details: for GI50 / CC50: Homo sapiens, 48 h; for HELA-APL TGI: SRB assay, 48 hours exposure
From the text: (§2) The finality of these assays is to interrupt the growth of a “in vitro” tumor cell culture by means a continued exhibition of the cells to the sample to be testing.
(§3) This form of the assay employs 96 well cell culture microplates of 9 mm diameter (Faircloth, 1988; Mosmann, 1983). Most of the cell lines are obtained from American Type Culture Collection (ATCC) derived from different human cancer types.
(§4) Cells are maintained in RPMI 1640 10% FBS, supplemented with 0.1 g/l penicillin and 0.1 g/l streptomycin sulphate and then incubated at 37° C., 5% CO2 and 98% humidity. For the experiments, cells were harvested from subconfluent cultures using trypsin and resuspended in fresh medium before plating.
(§5) Cells are seeded in 96 well microtiter plates, at 5×10^3 cells per well in aliquots of 195 μl medium, and they are allowed to attach to the plate surface by growing in drug free medium for 18 hours. Afterward, samples are added in aliquots of 5 μl in a ranging from 10 to 10^−8 μg/ml, dissolved in DMSO/EtOH/PBS (0.5:0.5:99). After 48 hours exposure, the antitumor effect are measured by the SRB methodology: cells are fixed by adding 50 μl of cold 50% (wt/vol) trichloroacetic acid (TCA) and incubating for 60 minutes at 4° C. Plates are washed with deionized water and dried. One hundred μl of SRB solution (0.4% wt/vol in 1% acetic acid) is added to each microtiter well and incubated for 10 minutes at room temperature. Unbound SRB is removed by washing with 1% acetic acid. Plates are air dried and bound stain is solubilized with Tris buffer. Optical densities are read on a automated spectrophotometric plate reader at a single wavelength of 490 nm.
(§6) The values for mean +/−SD of data from triplicate wells are calculated. Some parameters for cellular responses can be calculated: GI=growth inhibition, TGI=total growth inhibition (cytostatic effect) and LC=cell killing (cytotoxic effect).

[5] = tested on: LNCaP; test: Inhibition of cells growth by colorimetric (SRB) assay, LNCaP; details: for GI50 / CC50: Homo sapiens, LNCaP, 48 h; for GI50: read-out: LN-caP GI50, SRB assay, 48 hours exposure; for LN-caP TGI: SRB assay, 48 hours exposure
Outline: as §1

[6] = tested on: A-549; test: Inhibition of cells growth by colorimetric (SRB) assay, A-549; details: for GI50 / CC50: Homo sapiens, A549, 48 h; for GI50: read-out: A-549 GI50, SRB assay, 48 hours exposure; for A-549 TGI: SRB assay, 48 hours exposure
Outline: as §1

[7] = tested on: IGROV-ET; test: Inhibition of cells growth by colorimetric (SRB) assay, IGROV-ET; details: for GI50 / CC50: Homo sapiens, 48 h; for GI50: read-out: IGROV-ET GI50, SRB assay, 48 hours exposure; for IGROV-ET TGI: SRB assay, 48 hours exposure
Outline: as §1

[8] = tested on: DU-145; test: Inhibition of cells growth by colorimetric (SRB) assay, DU-145; details: for GI50 / CC50: Homo sapiens, DU-145, 48 h; for GI50: read-out: DU-145 GI50, SRB assay, 48 hours exposure; for DU-145 TGI: SRB assay, 48 hours exposure
Outline: as §1

[9] = tested on: K-562; test: Inhibition of cells growth by colorimetric (SRB) assay, K-562; details: for GI50 / CC50: Homo sapiens, K562, 48 h; for GI50: read-out: K-562 GI50, SRB assay, 48 hours exposure; for K-562 TGI: SRB assay, 48 hours exposure
Outline: as §1

[10] = tested on: SK-MEL-28; test: Inhibition of cells growth by colorimetric (SRB) assay, SK-MEL-28; details: for GI50 / CC50: Homo sapiens, SK-MEL-28, 48 h; for GI50: read-out: MEL-28 GI50, SRB assay, 48 hours exposure; for MEL-28 TGI: SRB assay, 48 hours exposure
Outline: as §1

[11] = tested on: IGROV-1; test: Inhibition of cells growth by colorimetric (SRB) assay, IGROV-1; details: for GI50 / CC50: Homo sapiens, IGROV-1, 48 h; for GI50: read-out: IGROV GI50, SRB assay, 48 hours exposure; for IGROV TGI: SRB assay, 48 hours exposure
Outline: as §1

[12] = tested on: LoVo; test: Inhibition of cells growth by colorimetric (SRB) assay, LoVo; details: for GI50 / CC50: Homo sapiens, LoVo, 48 h; for GI50: read-out: LOVO GI50, SRB assay, 48 hours exposure; for LOVO TGI: SRB assay, 48 hours exposure
Outline: as §1

[13] = tested on: HeLa; test: Inhibition of cells growth by colorimetric (SRB) assay, HeLa; details: for GI50: Homo sapiens, HeLa, 48 h, read-out: HELA GI50, SRB assay, 48 hours exposure; for HELA TGI: SRB assay, 48 hours exposure
From the text: as §2, §3, §4, §5, §6

[14] = tested on: PANC-1; test: Inhibition of cells growth by colorimetric (SRB) assay, PANC-1; details: for GI50 / CC50: Homo sapiens, PANC-1, 48 h; for GI50: read-out: PANC-1 GI50, SRB assay, 48 hours exposure; for PANC-1 TGI: SRB assay, 48 hours exposure
Outline: as §1

## Cl.Nc1nccc(-c2c3c(O)ccnc3n3c(N)nccc23)n1 [Compound 54]
[1]
  GI50: 530 nM
  SK-BR-3 TGI: 1.19E−06
[1]; read-out: SK-BR-3 LC50
  CC50: 2.67 µM
[2]
  GI50: 155 nM
  LOVO-DOX TGI: 7.32E−07
[2]; read-out: LOVO-DOX LC50
  CC50: 27.3 µM
[3]
  GI50: 1690 nM
  HT-29 TGI: 8.71E−06
[3]; read-out: HT-29 LC50
  CC50: 27.3 µM
[4]; read-out: HELA-APL GI50
  GI50: 61.2 nM
[4]; read-out: HELA-APL LC50
  CC50: 270 nM
[4]
  HELA-APL TGI: 1.28E−07
[5]
  GI50: 287 nM
  LN-caP TGI: 7.24E−07
[5]; read-out: LN-caP LC50
  CC50: 1.82 µM
[6]
  GI50: 339 nM
  A-549 TGI: 1.10E−06
[6]; read-out: A-549 LC50
  CC50: 27.3 µM
[7]
  GI50: 421 nM
  IGROV-ET TGI: 1.48E−06
[7]; read-out: IGROV-ET LC50
  CC50: 27.3 µM
[8]
  GI50: 360 nM
  DU-145 TGI: 1.32E−06
[8]; read-out: DU-145 LC50
  CC50: 27.3 µM
[9]
  GI50: 1670 nM
  K-562 TGI: 1.44E−05
[9]; read-out: K-562 LC50
  CC50: 27.3 µM
[10]
  GI50: 945 nM
  MEL-28 TGI: 3.22E−06
[10]; read-out: MEL-28 LC50
  CC50: 11.4 µM
[11]
  GI50: 440 nM
  IGROV TGI: 1.37E−06
[11]; read-out: IGROV LC50
  CC50: 27.3 µM
[12]
  GI50: 266 nM
  LOVO TGI: 1.04E−06
[12]; read-out: LOVO LC50
  CC50: 27.3 µM
[13]
  GI50: 57.3 nM
  HELA TGI: 1.17E−07
[14]
  GI50: 871 nM
  PANC-1 TGI: 3.28E−06
[14]; read-out: PANC-1 LC50
  CC50: 27.3 µM

## CSc1nccc(-c2c3cccnc3n3c(N)nccc23)n1.Cl [Compound 68]
[1]
  GI50: 641 nM
  SK-BR-3 TGI: 3.42E−06
[1]; read-out: SK-BR-3 LC50, SRB assay, 48 hours exposure
  CC50: 16.1 µM
[2]
  GI50: 1150 nM
  LOVO-DOX TGI: 2.43E−06
[2]; read-out: LOVO-DOX LC50, SRB assay, 48 hours exposure
  CC50: 29 µM
[3]
  GI50: 1140 nM
  HT-29 TGI: 6.93E−06
[3]; read-out: HT-29 LC50, SRB assay, 48 hours exposure
  CC50: 29 µM
[4]; read-out: HELA-APL GI50, SRB assay, 48 hours exposure
  GI50: 10.3 nM
[4]; read-out: HELA-APL LC50, SRB assay, 48 hours exposure
  CC50: 655 nM
[4]
  HELA-APL TGI: 5.68E−08
[5]
  GI50: 310 nM
  LN-caP TGI: 1.05E−06
[5]; read-out: LN-caP LC50, SRB assay, 48 hours exposure
  CC50: 4.41 µM
[6]
  GI50: 1290 nM
  A-549 TGI: 5.10E−06
[6]; read-out: A-549 LC50, SRB assay, 48 hours exposure
  CC50: 29 µM
[7]
  GI50: 2820 nM
  IGROV-ET TGI: 1.44E−05
[7]; read-out: IGROV-ET LC50, SRB assay, 48 hours exposure
  CC50: 29 µM
[8]
  GI50: 365 nM
  DU-145 TGI: 1.03E−06
[8]; read-out: DU-145 LC50, SRB assay, 48 hours exposure
  CC50: 2.9 µM
[9]
  GI50: 2510 nM
  K-562 TGI: 1.84E−05
[9]; read-out: K-562 LC50, SRB assay, 48 hours exposure
  CC50: 29 µM
[10]
  GI50: 1080 nM
  MEL-28 TGI: 4.49E−06
[10]; read-out: MEL-28 LC50, SRB assay, 48 hours exposure
  CC50: 14.4 µM
[11]
  GI50: 1720 nM
  IGROV TGI: 1.27E−05
[11]; read-out: IGROV LC50, SRB assay, 48 hours exposure
  CC50: 29 µM
[12]
  GI50: 539 nM
  LOVO TGI: 1.18E−06
[12]; read-out: LOVO LC50, SRB assay, 48 hours exposure
  CC50: 2.59 µM
[13]
  GI50: 10 nM
  HELA TGI: 3.19E−08
[14]
  GI50: 588 nM
  PANC-1 TGI: 1.15E−05
[14]; read-out: PANC-1 LC50, SRB assay, 48 hours exposure
  CC50: 29 µM
